Measured values taken from US9765068B2, “PRMT5 inhibitors and uses thereof” (Epizyme, Inc., priority 2012, dated 2017).

molecular target: PRMT5/MEP50 (Homo sapiens (Human), UniProt O14744); test: PRMT5 Biochemical Assay (PRMT5/MEP50 enzyme assay on peptide substrate, 3H-SAM Flashplate); conditions: PRMT5/MEP50 4 nM, 3H-SAM 75 nM, peptide 40 nM
From the text: General Materials. S-adenosylmethionine (SAM), S-adenosylhomocysteine (SAH), bicine, KCl, Tween20, dimethylsulfoxide (DMSO), bovine skin gelatin (BSG), and Tris(2-carboxyethyl)phosphine hydrochloride solution (TCEP) were purchased from Sigma-Aldrich at the highest level of purity possible. ^3H-SAM was purchase from American Radiolabeled Chemicals with a specific activity of 80 Ci/mmol. 384-well streptavidin Flashplates were purchased from PerkinElmer.
Substrates. Peptide representative of human histone H4 residues 1-15 was synthesized with a C-terminal linker-affinity tag motif and a C-terminal amide cap by 21st Century Biochemicals. […] The sequence was Ac-[…][K-Biot]-amide (SEQ ID NO.:3).
Full-length human MEP50 (NM_024102) clone was amplified from a human testis cDNA library incorporating a 5′ sequence encoding a 6-histidine tag (MHHHHHH) (SEQ ID NO.:5) fused directly to Arg 2 of MEP50. The amplified genes were sublconed into pENTR/D/TEV (Life Technologies) and subsequently transferred by Gateway™ attL×attR recombination to pDEST8 baculvirus expression vector (Life Technologies).
Protein Expression. Recombinant baculovirus and Baculovirus-Infected Insect Cells (BIIC) were generated according to Bac-to-Bac kit instructions (Life Technologies) and Wasilko, 2006, respectively. Protein over-expression was accomplished by infecting exponentially growing Spodoptera frugiperda (SF9) cell culture at 1.2×10^6 cell/ml with a 5000 fold dilution of BIIC stock. Infections were carried out at 27° C. for 72 hours, harvested by centrifugation, and stored at −80° C. for purification.
Protein Purification. […] Flag-PRMT5/6His-MeP50 was eluted with 300 mM Imidazole in the same buffer. […] Reference: Wasilko, D. J. and S. E. Lee: “TIPS: titerless infected-cells preservation and scale-up” Bioprocess J., 5 (2006), pp. 29-32.
General Procedure for PRMT5/MEP50 Enzyme Assays on Peptide Substrates.
The assays were all performed in a buffer consisting of 20 mM Bicine (pH=7.6), 1 mM TCEP, 0.005% BSG, and 0.002% Tween20, prepared on the day of use. Compounds in 100% DMSO (1 ul) were spotted into a polypropylene 384-well V-bottom plates (Greiner) using a Platemate Plus outfitted with a 384-channel head (Thermo Scientific). DMSO (1 ul) was added to Columns 11, 12, 23, 24, rows A-H for the maximum signal control and 1 ul of SAH, a known product and inhibitor of PRMT5/MEP50, was added to columns 11, 12, 23, 24, rows I-P for the minimum signal control. A cocktail (40 ul) containing the PRMT5/MEP50 enzyme and the peptide was added by Multidrop Combi (Thermo-Fisher). The compounds were allowed to incubate with PRMT5/MEP50 for 30 min at 25 degrees Celsius, then a cocktail (10 ul) containing ^3H-SAM was added to initiate the reaction (final volume=51 ul). The final concentrations of the components were as follows: PRMT5/MEP50 was 4 nM, ^3H-SAM was 75 nM, peptide was 40 nM, SAH in the minimum signal control wells was 100 uM, and the DMSO concentration was 1%. The assays were stopped by the addition of non-radioactive SAM (10 ul) to a final concentration of 600 uM, which dilutes the ^3H-SAM to a level where its incorporation into the peptide substrate is no longer detectable. 50 ul of the reaction in the 384-well polypropylene plate was then transferred to a 384-well Flashplate and the biotinylated peptides were allowed to bind to the streptavidin surface for at least 1 hour before being washed three times with 0.1% Tween20 in a Biotek ELx405 plate washer. The plates were then read in a PerkinElmer TopCount plate reader to measure the quantity of ^3H-labeled peptide bound to the Flashplate surface, measured as disintegrations per minute (dpm) or alternatively, referred to as counts per minute (cpm).
[formula] Where dpm=disintegrations per minute, cmpd=signal in assay well, and min and max are the respective minimum and maximum signal controls.

Chain of PRMT5/MEP50 (O14744 other isoform, or with tags, fused parts or gaps): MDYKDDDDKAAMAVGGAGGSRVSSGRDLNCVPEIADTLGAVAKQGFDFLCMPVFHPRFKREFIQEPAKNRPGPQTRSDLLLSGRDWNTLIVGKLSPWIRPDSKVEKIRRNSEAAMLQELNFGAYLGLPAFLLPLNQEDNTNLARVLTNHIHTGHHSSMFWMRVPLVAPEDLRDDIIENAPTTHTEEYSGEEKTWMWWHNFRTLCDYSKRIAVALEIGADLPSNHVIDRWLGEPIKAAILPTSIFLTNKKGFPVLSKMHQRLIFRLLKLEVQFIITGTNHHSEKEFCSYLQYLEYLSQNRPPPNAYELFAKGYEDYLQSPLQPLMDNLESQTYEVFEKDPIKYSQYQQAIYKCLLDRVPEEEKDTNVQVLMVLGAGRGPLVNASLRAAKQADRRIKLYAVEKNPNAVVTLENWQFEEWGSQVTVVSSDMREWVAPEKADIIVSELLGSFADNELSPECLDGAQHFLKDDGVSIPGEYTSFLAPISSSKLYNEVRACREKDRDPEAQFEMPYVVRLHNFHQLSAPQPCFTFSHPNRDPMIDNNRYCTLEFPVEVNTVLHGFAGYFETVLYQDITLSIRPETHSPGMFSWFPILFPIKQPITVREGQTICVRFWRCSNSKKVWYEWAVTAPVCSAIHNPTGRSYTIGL
Chain of PRMT5/MEP50 (Q9BQA1 other isoform, or with tags, fused parts or gaps partner): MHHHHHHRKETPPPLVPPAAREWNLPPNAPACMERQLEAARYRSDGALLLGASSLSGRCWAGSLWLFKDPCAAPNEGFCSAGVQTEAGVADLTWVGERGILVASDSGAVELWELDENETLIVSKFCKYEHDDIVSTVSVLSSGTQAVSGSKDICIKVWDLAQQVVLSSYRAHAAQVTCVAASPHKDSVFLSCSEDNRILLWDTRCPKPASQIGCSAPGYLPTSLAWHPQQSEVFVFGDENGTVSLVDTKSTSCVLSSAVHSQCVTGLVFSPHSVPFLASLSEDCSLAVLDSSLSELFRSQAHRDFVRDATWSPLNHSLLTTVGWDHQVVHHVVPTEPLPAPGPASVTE

Question: With `CS(=O)(=O)Nc1ccc(OCC(=O)NCC(O)CN2CCc3ccccc3C2)cc1` (centres unmarked) [Compound 42] as the compound, how does the IC50 read?
Answer: 101 to 1000 nM

Question: For `O=C(COc1cccc2cccnc12)NC[C@H](O)CN1CCc2ccccc2C1` [Compound 44, (S)—N-(3-(3,4-dihydroisoquinolin-2(1H)-yl)-2-hydroxypropyl)-2-(quinolin-8-yloxy)acetamide], which IC50 is on record?
Answer: 101 to 1000 nM

Question: How did the IC50 turn out when `O=C(CC1CCCCC1)NC[C@H](O)CN1CCc2ccccc2C1` [Compound 56] was run?
Answer: 1000 to 10000 nM

Question: `O=C(COc1ccccc1N1CCOCC1)NC[C@@H](O)CN1CCc2ccccc2C1` [Compound 78] was tested. Which IC50 did it give?
Answer: 101 to 1000 nM

Question: `CN1CCN(c2ccccc2OCC(=O)NC[C@@H](O)CN2CCc3ccccc3C2)CC1` [Compound 85] was tested. Which IC50 did it give?
Answer: 1000 to 10000 nM

Question: `O=C(COc1cccc(F)c1)NCC(O)CN1CCc2ccccc2C1` (centres unmarked) [Compound 7, N-(3-(3,4-dihydroisoquinolin-2(1H)-yl)-2-hydroxypropyl)-2-(3-fluorophenoxy)acetamide] was tested. Which IC50 did it give?
Answer: 101 to 1000 nM

Question: With `CC(=O)Nc1ccc(OCC(=O)NCC(O)CN2CCc3ccccc3C2)cc1` (centres unmarked) [Compound 21, 2-(4-acetamidophenoxy)-N-(3-(3,4-dihydroisoquinolin-2(1H)-yl)-2-hydroxypropyl)acetamide] as the compound, how does the IC50 read?
Answer: 101 to 1000 nM

Question: With `O=C(COc1ccccc1C1CNC1)NCC(O)CN1CCc2ccccc2C1` (centres unmarked) [Compound 132] as the compound, how does the IC50 read?
Answer: 1000 to 10000 nM

Question: For `CN1CCc2cccc(OCC(=O)NCC(O)CN3CCc4ccccc4C3)c2C1` (centres unmarked) [Compound 120], which IC50 is on record?
Answer: 101 to 1000 nM

Question: With `Cn1nccc1-c1cccc(CC(=O)NCC(O)CN2CCc3ccccc3C2)c1` (centres unmarked) [Compound 54, N-(3-(3,4-dihydroisoquinolin-2(1H)-yl)-2-hydroxypropyl)-2-(3-(1-methyl-1H-pyrazol-5-yl)phenyl)acetamide] as the compound, how does the IC50 read?
Answer: 101 to 1000 nM

Question: With `CS(=O)(=O)c1ccc(OCC(=O)NCC(O)CN2CCc3ccccc3C2)cc1` (centres unmarked) [Compound 14] as the compound, how does the IC50 read?
Answer: 1000 to 10000 nM

Question: With `N#Cc1ccccc1OCC(=O)NCC(O)CN1CCc2ccccc2C1` (centres unmarked) [Compound 17] as the compound, how does the IC50 read?
Answer: 101 to 1000 nM

Question: With `O=C(COc1cccc2c1CCCN2)NCC(O)CN1CCc2ccccc2C1` (centres unmarked) [Compound 150] as the compound, how does the IC50 read?
Answer: 101 to 1000 nM

Question: `NC(=O)c1ccccc1OCC(=O)NCC(O)CN1CCc2ccccc2C1` (centres unmarked) [Compound 29] was tested. Which IC50 did it give?
Answer: 101 to 1000 nM

Question: How did the IC50 turn out when `CC(Oc1ccccc1S(C)(=O)=O)C(=O)NCC(O)CN1CCc2ccccc2C1` (centres unmarked) [Compound 114] was run?
Answer: 101 to 1000 nM

Question: Which IC50 does the source give for `O=C(COc1ccccc1F)NCC(O)CN1CCc2ccccc2C1` (centres unmarked) [Compound 16] here?
Answer: 101 to 1000 nM

Question: How did the IC50 turn out when `O=C(CCc1ccccc1)NCC(O)CN1CCc2ccccc2C1` (centres unmarked) [Compound 2] was run?
Answer: 1000 to 10000 nM

Question: With `CC(=O)Nc1ccccc1OCC(=O)NCC(O)CN1CCc2ccccc2C1` (centres unmarked) [Compound 36] as the compound, how does the IC50 read?
Answer: 101 to 1000 nM

Question: Which IC50 does the source give for `O=C(Cc1cccc2cccnc12)NCC(O)CN1CCc2ccccc2C1` (centres unmarked) [Compound 60, N-(3-(3,4-dihydroisoquinolin-2(1H)-yl)-2-hydroxypropyl)-2-(quinolin-8-yl)acetamide] here?
Answer: 101 to 1000 nM

Question: `O=C(COc1cccc2[nH]c(=O)cnc12)NCC(O)CN1CCc2ccccc2C1` (centres unmarked) [Compound 125] was tested. Which IC50 did it give?
Answer: 1000 to 10000 nM

Question: For `CN(C)c1ncccc1OCC(=O)NCC(O)CN1CCc2ccccc2C1` (centres unmarked) [Compound 127], which IC50 is on record?
Answer: 101 to 1000 nM

Question: For `CN(C)c1ccc2cccc(OCC(=O)NC[C@H](O)CN3CCc4ccccc4C3)c2n1` [Compound 104], which IC50 is on record?
Answer: 101 to 1000 nM

Question: `Cc1ccccc1OCC(=O)NCC(O)CN1CCc2ccccc2C1` (centres unmarked) [Compound 15, N-(3-(3,4-dihydroisoquinolin-2(1H)-yl)-2-hydroxypropyl)-2-(o-tolyloxy)acetamide] was tested. Which IC50 did it give?
Answer: 101 to 1000 nM

Question: How did the IC50 turn out when `O=C(COc1cccc2ncc(=O)[nH]c12)NCC(O)CN1CCc2ccccc2C1` (centres unmarked) [Compound 129] was run?
Answer: 101 to 1000 nM

Question: With `CC(=O)Nc1cccc(OCC(=O)NCC(O)CN2CCc3ccccc3C2)c1` (centres unmarked) [Compound 31, 2-(3-acetamidophenoxy)-N-(3-(3,4-dihydroisoquinolin-2(1H)-yl)-2-hydroxypropyl)acetamide] as the compound, how does the IC50 read?
Answer: 1000 to 10000 nM

Question: With `CN1CCC(c2ccccc2OCC(=O)NCC(O)CN2CCc3ccccc3C2)C1` (centres unmarked) [Compound 136] as the compound, how does the IC50 read?
Answer: 1000 to 10000 nM

Question: With `O=C(COc1ccccc1)NC[C@H](O)CN1CCc2ccccc2C1` [Compound 32] as the compound, how does the IC50 read?
Answer: 101 to 1000 nM

Question: Which IC50 does the source give for `O=C(COC1CCOCC1)NCC(O)CN1CCc2ccccc2C1` (centres unmarked) [Compound 41] here?
Answer: 1000 to 10000 nM

Question: For `NS(=O)(=O)c1cccc(OCC(=O)NCC(O)CN2CCc3ccccc3C2)c1` (centres unmarked) [Compound 131], which IC50 is on record?
Answer: 1000 to 10000 nM

Question: With `Cn1cnc2ccc(NCC(=O)NCC(O)CN3CCc4ccccc4C3)cc21` (centres unmarked) [Compound 69] as the compound, how does the IC50 read?
Answer: 101 to 1000 nM

Question: For `O=C(COc1ccccc1-c1ncc[nH]1)NCC(O)CN1CCc2ccccc2C1` (centres unmarked) [Compound 137], which IC50 is on record?
Answer: 101 to 1000 nM

Question: With `CS(=O)(=O)N1CCN(c2ccccc2OCC(=O)NCC(O)CN2CCc3ccccc3C2)CC1` (centres unmarked) [Compound 106] as the compound, how does the IC50 read?
Answer: 101 to 1000 nM

Question: How did the IC50 turn out when `O=C(CNc1ccccc1)NCC(O)CN1CCc2ccccc2C1` (centres unmarked) [Compound 18] was run?
Answer: 1000 to 10000 nM

Question: Which IC50 does the source give for `O=C(COc1cccc(C(=O)N2CCOCC2)c1)NCC(O)CN1CCc2ccccc2C1` (centres unmarked) [Compound 83] here?
Answer: 101 to 1000 nM

Question: `CN(C)C(=O)c1ccccc1OCC(=O)NCC(O)CN1CCc2ccccc2C1` (centres unmarked) [Compound 113] was tested. Which IC50 did it give?
Answer: 101 to 1000 nM

Question: With `O=C(COc1ccccc1-c1c[nH]cn1)NCC(O)CN1CCc2ccccc2C1` (centres unmarked) [Compound 115] as the compound, how does the IC50 read?
Answer: 10000 to 50000 nM

Question: `O=C(COc1cccc(NC2CCOCC2)n1)NCC(O)CN1CCc2ccccc2C1` (centres unmarked) [Compound 121] was tested. Which IC50 did it give?
Answer: 1000 to 10000 nM

Question: For `COc1ccc(OCC(=O)NCC(O)CN2CCc3ccccc3C2)cc1` (centres unmarked) [Compound 12, N-(3-(3,4-dihydroisoquinolin-2(1H)-yl)-2-hydroxypropyl)-2-(4-methoxyphenoxy)acetamide], which IC50 is on record?
Answer: 101 to 1000 nM

Question: For `CN1CCCc2c(OCC(=O)NCC(O)CN3CCc4ccccc4C3)cccc21` (centres unmarked) [Compound 151], which IC50 is on record?
Answer: 101 to 1000 nM

Question: `O=C(Cc1ccccc1)NC[C@H](O)CN1CCc2ccccc2C1` [Compound 55] was tested. Which IC50 did it give?
Answer: 101 to 1000 nM

Question: With `Cn1cnc2cc(OCC(=O)NCC(O)CN3CCc4ccccc4C3)ccc21` (centres unmarked) [Compound 46, N-(3-(3,4-dihydroisoquinolin-2(1H)-yl)-2-hydroxypropyl)-2-((1-methyl-1H-benzo[d]imidazol-5-yl)oxy)acetamide] as the compound, how does the IC50 read?
Answer: 101 to 1000 nM

Question: For `CN(CC(O)CN1CCc2ccccc2C1)C(=O)COc1ccccc1` (centres unmarked) [Compound 5], which IC50 is on record?
Answer: 10000 to 50000 nM

Question: How did the IC50 turn out when `O=C(Cc1ccncc1)NCC(O)CN1CCc2ccccc2C1` (centres unmarked) [Compound 51] was run?
Answer: 10000 to 50000 nM

Question: Which IC50 does the source give for `O=C(COc1ccccc1)NC[C@@H](O)CN1CCc2ccccc2C1` [Compound 33] here?
Answer: 1000 to 10000 nM

Question: `O=C(COc1cccc2c1OCC(=O)N2)NCC(O)CN1CCc2ccccc2C1` (centres unmarked) [Compound 124] was tested. Which IC50 did it give?
Answer: 1000 to 10000 nM

Question: For `O=C(COc1ccccc1)NCC(O)CN1CCc2ccccc2C1` (centres unmarked) [Compound 1, N-(3-(3,4-dihydroisoquinolin-2(1H)-yl)-2-hydroxypropyl)-2-phenoxyacetamide], which IC50 is on record?
Answer: 101 to 1000 nM

Question: With `CN(C)CCOc1ccccc1OCC(=O)NC[C@@H](O)CN1CCc2ccccc2C1` [Compound 89] as the compound, how does the IC50 read?
Answer: 101 to 1000 nM
